Source: US20110159515A1, “COMPOSITIONS AND METHODS FOR THE RAPID GROWTH AND DETECTION OF MICROORGANISMS” (SOLUS SCIENTIFIC SOLUTIONS LIMITED, priority 2008, published 2011)

System: S. aberdeen
Test: Direct binding Salmonella assay (chemiluminescence immunosorbent)
Conditions: for signal, direct binding Salmonella assay: conjugate 1:100; for signal, release and detection of core oligosaccharide: 0.1% SDS

CCCCCCCCCCCCOS(=O)(=O)[O-].[Na+] [SDS, sodium dodecyl sulphate]
signal, direct binding Salmonella assay (0% SDS, 2.5 × 10^4 S. aberdeen, black and white plates): 1,617 ± 250
signal, direct binding Salmonella assay (0% SDS, 5 × 10^3 S. aberdeen, black and white plates): 575 ± 120
signal, direct binding Salmonella assay (0% SDS, 5 × 10^4 S. aberdeen, black and white plates): 2,027 ± 206
signal, direct binding Salmonella assay (0% SDS, 10^4 S. aberdeen, black and white plates): 1,102 ± 357
signal, direct binding Salmonella assay (0% SDS, 10^5 S. aberdeen, black and white plates): 3,131 ± 121
signal, direct binding Salmonella assay (0% SDS, 10^6 S. aberdeen, black and white plates): 24,566 ± 4,287
signal, direct binding Salmonella assay (0% SDS, Peptone, black and white plates): 643 ± 54
signal, direct binding Salmonella assay (0.1% (w/v) SDS, 2.5 × 10^4 S. aberdeen, white plate, Lucy I): 28,622 ± 2,162
signal, direct binding Salmonella assay (0.1% (w/v) SDS, 5 × 10^3 S. aberdeen, white plate, Lucy I): 8,536 ± 1,520
signal, direct binding Salmonella assay (0.1% (w/v) SDS, 5 × 10^4 S. aberdeen, white plate, Lucy I): 51,909 ± 3,036
signal, direct binding Salmonella assay (0.1% (w/v) SDS, 10^4 S. aberdeen, white plate, Lucy I): 11,324 ± 2,770
signal, direct binding Salmonella assay (0.1% (w/v) SDS, 10^5 S. aberdeen, white plate, Lucy I): 143,796 ± 4,297
signal, direct binding Salmonella assay (0.1% (w/v) SDS, 10^6 S. aberdeen, white plate, Lucy I): 356,444 ± 102,877
signal, direct binding Salmonella assay (0.1% (w/v) SDS, Peptone, white plate, Lucy I): 4,288 ± 1.653
signal, direct binding Salmonella assay (0.1% SDS (first block), 2.5 × 10^4 S. aberdeen, black and white plates): 1,277 ± 211
signal, direct binding Salmonella assay (0.1% SDS (first block), 5 × 10^3 S. aberdeen, black and white plates): 591 ± 1
signal, direct binding Salmonella assay (0.1% SDS (first block), 5 × 10^4 S. aberdeen, black and white plates): 1,297 ± 4
signal, direct binding Salmonella assay (0.1% SDS (first block), 10^4 S. aberdeen, black and white plates): 1,662 ± 531
signal, direct binding Salmonella assay (0.1% SDS (first block), 10^5 S. aberdeen, black and white plates): 2,386 ± 263
signal, direct binding Salmonella assay (0.1% SDS (first block), 10^6 S. aberdeen, black and white plates): 16,738 ± 1051
signal, direct binding Salmonella assay (0.1% SDS (first block), Peptone, black and white plates): 643 ± 54
signal, direct binding Salmonella assay (0.1% SDS (second block), 2.5 × 10^4 S. aberdeen, black and white plates): 1,442 ± 28^
signal, direct binding Salmonella assay (0.1% SDS (second block), 5 × 10^3 S. aberdeen, black and white plates): 678 ± 40
signal, direct binding Salmonella assay (0.1% SDS (second block), 5 × 10^4 S. aberdeen, black and white plates): 2321 ± 437
signal, direct binding Salmonella assay (0.1% SDS (second block), 10^4 S. aberdeen, black and white plates): 930 ± 21
signal, direct binding Salmonella assay (0.1% SDS (second block), 10^5 S. aberdeen, black and white plates): 4,654 ± 636
signal, direct binding Salmonella assay (0.1% SDS (second block), 10^6 S. aberdeen, black and white plates): 28,169 ± 1516
signal, direct binding Salmonella assay (0.1% SDS (second block), Peptone, black and white plates): 503 ± 76
signal, release and detection of core oligosaccharide (10^1 bacteria (species not given)): 10248 relative light units
signal, release and detection of core oligosaccharide (10^2 bacteria (species not given)): 9525 relative light units
signal, release and detection of core oligosaccharide (10^3 bacteria (species not given)): 12375 relative light units
signal, release and detection of core oligosaccharide (10^4 bacteria (species not given)): 65960 relative light units
signal, release and detection of core oligosaccharide (10^5 bacteria (species not given)): 717259 relative light units
signal, release and detection of core oligosaccharide (10^6 bacteria (species not given)): 895811 relative light units
signal, direct binding Salmonella assay (0.2% (w/v) SDS, 2.5 × 10^4 S. aberdeen, white plate, Lucy I): 27,339 ± 2,635
signal, direct binding Salmonella assay (0.2% (w/v) SDS, 5 × 10^3 S. aberdeen, white plate, Lucy I): 10,334 ± 2,264
signal, direct binding Salmonella assay (0.2% (w/v) SDS, 5 × 10^4 S. aberdeen, white plate, Lucy I): 75,900 ± 5,798
signal, direct binding Salmonella assay (0.2% (w/v) SDS, 10^4 S. aberdeen, white plate, Lucy I): 11,098 ± 828^
signal, direct binding Salmonella assay (0.2% (w/v) SDS, 10^5 S. aberdeen, white plate, Lucy I): 112,096 ± 3,841
signal, direct binding Salmonella assay (0.2% (w/v) SDS, 10^6 S. aberdeen, white plate, Lucy I): 365,496 ± 12,729
signal, direct binding Salmonella assay (0.2% (w/v) SDS, Peptone, white plate, Lucy I): 3,904 ± 59^
signal, direct binding Salmonella assay (0.3% SDS, 2.5 × 10^4 S. aberdeen, white plate, Lucy I): 38,450 ± 1,411
signal, direct binding Salmonella assay (0.3% SDS, 5 × 10^3 S. aberdeen, white plate, Lucy I): 14,313 ± 2,881
signal, direct binding Salmonella assay (0.3% SDS, 5 × 10^4 S. aberdeen, white plate, Lucy I): 123,881 ± 15,994
signal, direct binding Salmonella assay (0.3% SDS, 10^4 S. aberdeen, white plate, Lucy I): 14,314 ± 617^
signal, direct binding Salmonella assay (0.3% SDS, 10^5 S. aberdeen, white plate, Lucy I): 209,913 ± 40,150
signal, direct binding Salmonella assay (0.3% SDS, 10^6 S. aberdeen, white plate, Lucy I): 352,714 ± 88,260
signal, direct binding Salmonella assay (0.3% SDS, Peptone, white plate, Lucy I): 3,026 ± 473
signal, direct binding Salmonella assay (0.4% SDS, 2.5 × 10^4 S. aberdeen, white plate, Lucy I): 59,399 ± 13,550
signal, direct binding Salmonella assay (0.4% SDS, 5 × 10^3 S. aberdeen, white plate, Lucy I): 25,175 ± 5,025
signal, direct binding Salmonella assay (0.4% SDS, 5 × 10^4 S. aberdeen, white plate, Lucy I): 120,481 ± 16,389
